Like-named read-outs stand apart in the source and are kept apart here.
What was measured:
GCN2 kinase = GCN2 kinase (Homo sapiens, UniProt Q9P2K8); assay: GCN2 enzyme inhibition assay (Transcreener ADP2 fluorescence polarization); format: biochemical; conditions: 280 μM ATP
How it was run: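 Human GCN2 (4 nM) preincubated 10 min with compound (0–8 μM) and 200 μM (RS)7 peptide in Tris-HCl pH 7.5, NaCl, MgCl2, DTT. Reaction started with 280 μM ATP, run 1 h at 25 °C. ADP detected by Transcreener fluorescence polarization. IC50 and Ki(app) fitted by tight-binding algorithm.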

[1] = target: intracellular GCN2 (phosphorylation of the GCN2 substrate eIF2α) (Homo sapiens, UniProt Q9P2K8); assay: GCN2 cellular inhibition assay (AlphaScreen SureFire P-eIF2α Ser51, borrelidin-treated U2OS cells); format: cell-based
How it was run: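 U2OS, overnight attach; cpd 4-fold serial dil. from 40 μM final; borrelidin 10 μM, 1 h 37 °C/5% CO2; lyse; AlphaScreen P-eIF2α Ser51 (acceptor 2 h, donor overnight, RT, dark); % inhib. vs borrelidin-only.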

[2] = Enzyme activity for compounds of Formula IV, Ki(app), 25° C.
[3] = compounds of Formula IV, biomarker assay, phosphorylated eIF2α Ser51 in borrelidin-treated U2OS cells
[4] = compounds of Formula II, 4 nM GCN2 kinase
[5] = compounds of Formula II, biomarker assay, phosphorylated eIF2α Ser51 in borrelidin-treated U2OS cells

Chain of intracellular GCN2 (phosphorylation of the GCN2 substrate eIF2α) (Q9P2K8 whole entry): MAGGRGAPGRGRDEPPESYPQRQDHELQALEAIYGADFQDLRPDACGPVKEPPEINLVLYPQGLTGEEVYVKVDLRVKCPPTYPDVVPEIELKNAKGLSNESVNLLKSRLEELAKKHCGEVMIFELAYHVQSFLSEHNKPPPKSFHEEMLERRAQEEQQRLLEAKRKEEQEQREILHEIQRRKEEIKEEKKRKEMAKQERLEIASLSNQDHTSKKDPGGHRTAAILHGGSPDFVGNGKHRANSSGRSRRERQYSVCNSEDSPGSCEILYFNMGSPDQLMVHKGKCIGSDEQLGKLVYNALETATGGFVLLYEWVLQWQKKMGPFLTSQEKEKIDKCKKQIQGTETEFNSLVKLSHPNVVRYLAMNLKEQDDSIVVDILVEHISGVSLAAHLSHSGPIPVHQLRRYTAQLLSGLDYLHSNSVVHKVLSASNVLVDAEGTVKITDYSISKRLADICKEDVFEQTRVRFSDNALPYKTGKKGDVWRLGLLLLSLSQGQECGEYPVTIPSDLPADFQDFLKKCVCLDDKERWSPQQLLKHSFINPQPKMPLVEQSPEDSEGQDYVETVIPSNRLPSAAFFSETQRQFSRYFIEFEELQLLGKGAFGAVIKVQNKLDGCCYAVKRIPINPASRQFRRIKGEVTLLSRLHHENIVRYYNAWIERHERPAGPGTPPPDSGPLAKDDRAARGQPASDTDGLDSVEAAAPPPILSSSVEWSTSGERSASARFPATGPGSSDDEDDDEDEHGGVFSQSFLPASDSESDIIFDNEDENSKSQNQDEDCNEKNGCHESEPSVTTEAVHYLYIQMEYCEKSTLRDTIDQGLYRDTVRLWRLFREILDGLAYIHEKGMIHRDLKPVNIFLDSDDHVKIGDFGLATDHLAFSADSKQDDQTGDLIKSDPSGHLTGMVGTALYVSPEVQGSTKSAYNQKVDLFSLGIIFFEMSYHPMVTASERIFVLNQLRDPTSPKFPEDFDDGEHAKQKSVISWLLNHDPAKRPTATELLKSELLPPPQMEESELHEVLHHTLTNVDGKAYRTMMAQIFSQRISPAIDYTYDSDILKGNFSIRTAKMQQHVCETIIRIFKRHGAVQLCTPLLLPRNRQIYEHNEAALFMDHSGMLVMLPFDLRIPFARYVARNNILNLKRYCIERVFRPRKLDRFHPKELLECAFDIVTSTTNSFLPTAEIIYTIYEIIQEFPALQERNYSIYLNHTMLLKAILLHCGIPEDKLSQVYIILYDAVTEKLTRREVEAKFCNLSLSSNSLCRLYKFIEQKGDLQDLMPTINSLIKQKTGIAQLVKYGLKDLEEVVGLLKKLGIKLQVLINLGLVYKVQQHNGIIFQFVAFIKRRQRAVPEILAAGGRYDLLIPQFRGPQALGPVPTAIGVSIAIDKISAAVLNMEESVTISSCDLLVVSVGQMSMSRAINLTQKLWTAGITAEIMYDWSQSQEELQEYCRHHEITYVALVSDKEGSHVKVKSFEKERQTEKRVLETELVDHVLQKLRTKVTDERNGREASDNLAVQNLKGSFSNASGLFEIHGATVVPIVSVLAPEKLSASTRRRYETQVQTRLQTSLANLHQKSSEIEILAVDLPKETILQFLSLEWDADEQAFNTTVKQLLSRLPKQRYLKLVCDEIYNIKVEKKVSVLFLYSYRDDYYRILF
Chain of GCN2 kinase (Q9P2K8 whole entry): as above

SMILES | Ki (GCN2 kinase; [4]) [nM] | IC50 [1, 5] [nM] | further results
FC(F)(F)c1cn2c(-c3nccc(N4CCCC(c5cn[nH]c5)C4)n3)cnc2cn1 (single isomer, unassigned) [IV-546, 3-(4-(3-(1H-Pyrazol-4-yl)piperidin-1-yl)pyrimidin-2-yl)-6-(trifluoromethyl)imidazo[1,2-a]pyrazine] |  |  | Ki (GCN2 kinase; [2]): < 10 nM; IC50 [1, 3]: < 500 nM
CC1CN(c2ccnc(-c3cnc4cnc(C(F)(F)F)cn34)n2)CC(c2cn[nH]c2)O1 (centres unmarked) [IV-10, 2-Methyl-6-(1H-pyrazol-4-yl)-4-(2-(6-(trifluoromethyl)imidazo[1,2-a]pyrazin-3-yl)pyrimidin-4-yl)morpholine] |  |  | Ki (GCN2 kinase; [2]): < 10 nM; IC50 [1, 3]: < 500 nM
CP(C)(=O)C1CC(c2cn[nH]c2)CN(c2ccnc(-c3cnc4sc(C(F)(F)F)cn34)n2)C1 (racemic) [Compound V-5, 5-[4-[3-Dimethylphosphoryl-5-(1H-pyrazol-4-yl)-1-piperidyl]pyrimidin-2-yl]-2-(trifluoromethyl)imidazo[2,1-b]thiazole] |  |  | Ki (GCN2 kinase; compounds of Formula V, 4 nM GCN2 kinase): 10 to 100 nM; IC50 ([1]; compounds of Formula V, U2OS cells, 10 μM borrelidin, 1 h, read-out: GCN2 Biomarker (IC50)): > 5000 nM
FC(F)c1ccc2ncc(-c3cc(N4CCOC(Cn5cncn5)C4)ncn3)n2n1 (centres unmarked) [II-326, 2-((1H-1,2,4-Triazol-1-yl)methyl)-4-(6-(6-(difluoromethyl)imidazo[1,2-b]pyridazin-3-yl)pyrimidin-4-yl)morpholine] | 10 to 1000 | > 5000 | 
C[C@@H]1CO[C@H](CNS(C)(=O)=O)CN1c1cc(-c2cnc3ccc(C(F)F)nn23)ncn1 [II-197, N-(((2S,5R)-4-(6-(6-(Difluoromethyl)imidazo[1,2-b]pyridazin-3-yl)pyrimidin-4-yl)-5-methylmorpholin-2-yl)methyl)methanesulfonamide] | < 10 | < 500 | 
O=C(O)[C@H]1CCCN(c2cc(-c3cnc4ccc(C(F)(F)F)nn34)ncn2)C1 [II-504, (S)-1-(6-(6-(Trifluoromethyl)imidazo[1,2-b]pyridazin-3-yl)pyrimidin-4-yl)piperidine-3-carboxylic acid] | 10 to 1000 | > 5000 | 
OC[C@@H]1CN(c2cc(-c3cnc4ccc(C(F)F)nn34)ccn2)CCN1 [II-169, (S)-(4-(4-(6-(Difluoromethyl)imidazo[1,2-b]pyridazin-3-yl)pyridin-2-yl)piperazin-2-yl)methanol] | 10 to 1000 | > 5000 | 
CS(=O)(=O)NCC1CCCN(c2cc(-c3cnc4ccc(C(F)F)nn34)ccn2)C1 (centres unmarked) [II-157, N-((1-(4-(6-(Difluoromethyl)imidazo[1,2-b]pyridazin-3-yl)pyridin-2-yl)piperidin-3-yl)methyl)methanesulfonamide] | < 10 | < 500 | 
C[C@@H]1CN(c2ccnc(-c3cnc4cnc(Br)cn34)n2)C[C@H](c2cn[nH]c2)N1 (racemic) [IV-344, Cis-6-Bromo-3-(4-(3-methyl-5-(1H-pyrazol-4-yl)piperazin-1-yl)pyrimidin-2-yl)imidazo[1,2-a]pyrazine] |  |  | Ki (GCN2 kinase; [2]): 10 to 100 nM; IC50 [1, 3]: 500 to 5000 nM
CS(=O)(=O)NCC1CCCN(c2cc(-c3cnc4ccc(C(F)F)nn34)cnc2C#N)C1 (centres unmarked) [II-117, N-((1-(2-Cyano-5-(6-(difluoromethyl)imidazo[1,2-b]pyridazin-3-yl)pyridin-3-yl)piperidin-3-yl)methyl)methanesulfonamide] | 10 to 1000 | 500 to 5000 | 
NS(=O)(=O)N1CCOC2(CN(c3cc(-c4cnc5ccc(C(F)F)nn45)ncn3)C2)C1 [II-285, 2-(6-(6-(Difluoromethyl)imidazo[1,2-b]pyridazin-3-yl)pyrimidin-4-yl)-5-oxa-2,8-diazaspiro[3.5]nonane-8-sulfonamide] | 10 to 1000 | > 5000 | 
NCS(=O)(=O)c1cccc(-c2ccnc(-c3cnc4cnc(C(F)F)cn34)n2)c1 [IV-148, ((3-(2-(6-(Difluoromethyl)imidazo[1,2-a]pyrazin-3-yl)pyrimidin-4-yl)phenyl)sulfonyl)methanamine] |  |  | Ki (GCN2 kinase; [2]): 100 to 1000 nM; IC50 [1, 3]: > 5000 nM
CC1CN(c2cc(-c3cnc4ccc(C(F)F)nn34)ncn2)CC(CNS(C)(=O)=O)N1C (centres unmarked) [II-418, N-((4-(6-(6-(Difluoromethyl)imidazo[1,2-b]pyridazin-3-yl)pyrimidin-4-yl)-1,6-dimethylpiperazin-2-yl)methyl)methanesulfonamide] | 10 to 1000 | 500 to 5000 | 
CC1C(CNS(C)(=O)=O)CCCN1c1cc(-c2cnc3ccc(C(F)F)nn23)ncn1 (single isomer, unassigned) [II-265, N-((1-(6-(6-(Difluoromethyl)imidazo[1,2-b]pyridazin-3-yl)pyrimidin-4-yl)-2-methylpiperidin-3-yl)methyl)methanesulfonamide] | 10 to 1000 | > 5000 | 
NS(=O)(=O)N1CC2CCCN(c3cc(-c4cnc5ccc(C(F)F)nn45)ncn3)C2C1 (centres unmarked) [II-335, 1-(6-(6-(Difluoromethyl)imidazo[1,2-b]pyridazin-3-yl)pyrimidin-4-yl)octahydro-6H-pyrrolo[3,4-b]pyridine-6-sulfonamide] | 10 to 1000 | > 5000 | 
O=C1CCN(c2cc(-c3cnc4ccc(Cl)nn34)ccn2)CCN1 [II-187, 1-(4-(6-Chloroimidazo[1,2-b]pyridazin-3-yl)pyridin-2-yl)-1,4-diazepan-5-one] | 10 to 1000 | > 5000 | 
CNS(=O)(=O)N[C@H]1CCCN(c2cc(-c3cnc4ccc(C(F)F)nn34)ncn2)C1 [II-422, (S)-1-(1-(6-(6-(Difluoromethyl)imidazo[1,2-b]pyridazin-3-yl)pyrimidin-4-yl)piperidin-3-yl)-3-methylsulfuric diamide] | 10 to 1000 | < 500 | 
CC1CN(c2cc(-c3cnc4ccc(C(F)F)nn34)ncn2)CC(CNS(C)(=O)=O)C12OCCO2 (centres unmarked) [II-527, N-((8-(6-(6-(Difluoromethyl)imidazo[1,2-b]pyridazin-3-yl)pyrimidin-4-yl)-10-methyl-1,4-dioxa-8-azaspiro[4.5]decan-6-yl)methyl)methanesulfonamide] | < 10 | < 500 | 
CS(=O)(=O)NCC1CCCN(c2cc(-c3cnc4ccc(C(F)F)nn34)cc(O)n2)C1 (centres unmarked) [II-141, N-((1-(4-(6-(difluoromethyl)imidazo[1,2-b]pyridazin-3-yl)-6-oxo-1,6-dihydropyridin-2-yl)piperidin-3-yl)methyl)methanesulfonamide] | < 10 | 500 to 5000 | 
CC1CN(c2ccnc(-c3cnc4cnc(Cl)cn34)n2)CC(c2cn[nH]c2)N1 (single isomer, unassigned) [IV-213, 6-Chloro-3-(4-(3-methyl-5-(1H-pyrazol-4-yl)piperazin-1-yl)pyrimidin-2-yl)imidazo[1,2-a]pyrazine] |  |  | Ki (GCN2 kinase; [2]): 10 to 100 nM; IC50 [1, 3]: 500 to 5000 nM
CS(=O)(=O)NC[C@@H]1CN(c2cc(-c3cnc4ccc(C(F)F)nn34)ncn2)C[C@@H](C(F)(F)F)O1 [II-307, N-(((2S,6S)-4-(6-(6-(Difluoromethyl)imidazo[1,2-b]pyridazin-3-yl)pyrimidin-4-yl)-6-(trifluoromethyl)morpholin-2-yl)methyl)methanesulfonamide] | 10 to 1000 | 500 to 5000 | 
CS(=O)(=O)C1CCCN(c2ccnc(-c3cnc4cnc(C(F)F)cn34)n2)C1 (centres unmarked) [IV-165, 6-(Difluoromethyl)-3-(4-(3-(methylsulfonyl)piperidin-1-yl)pyrimidin-2-yl)imidazo[1,2-a]pyrazine] |  |  | Ki (GCN2 kinase; [2]): 100 to 1000 nM; IC50 [1, 3]: > 5000 nM
CC1C(c2cn[nH]c2)OCCN1c1ccnc(-c2cnc3cnc(Cl)cn23)n1 (single isomer, unassigned) [IV-9, 4-(2-(6-Chloroimidazo[1,2-a]pyrazin-3-yl)pyrimidin-4-yl)-3-methyl-2-(1H-pyrazol-4-yl)morpholine] |  |  | Ki (GCN2 kinase; [2]): < 10 nM; IC50 [1, 3]: < 500 nM
C[C@H]1CN(c2cc(-c3cnc4ccc(C(F)F)nn34)ncc2F)C[C@@H](CNS(C)(=O)=O)C1(F)F [II-270, N-[[(3S,5S)-1-[2-[6-(Difluoromethyl)imidazo[1,2-b]pyridazin-3-yl]-5-fluoro-4-pyridyl]-4,4-difluoro-5-methyl-3-piperidyl]methyl]methanesulfonamide] | < 10 | 500 to 5000 | 
CS(=O)(=O)NCC1CC(O)CN(c2cc(-c3cnc4ccc(C(F)F)nn34)ncn2)C1 (centres unmarked) [II-12, N-((1-(6-(6-(Difluoromethyl)imidazo[1,2-b]pyridazin-3-yl)pyrimidin-4-yl)-5-hydroxypiperidin-3-yl)methyl)methanesulfonamide] | 10 to 1000 | 500 to 5000 | 
CC1CN(c2cc(-c3cnc4ccc(C(F)F)nn34)ccn2)CC(CNS(C)(=O)=O)C1(F)F (centres unmarked) [II-57, N-((1-(4-(6-(Difluoromethyl)imidazo[1,2-b]pyridazin-3-yl)pyridin-2-yl)-4,4-difluoro-5-methylpiperidin-3-yl)methyl)methanesulfonamide] | < 10 | 500 to 5000 | 
NCC1CCN(c2cc(-c3cnc4ccc(C(F)F)nn34)ncn2)C1 (centres unmarked) [II-409, (1-(6-(6-(Difluoromethyl)imidazo[1,2-b]pyridazin-3-yl)pyrimidin-4-yl)pyrrolidin-3-yl)methanamine] | 10 to 1000 | > 5000 | 
CS(=O)(=O)NCC1CN(c2cc(-c3cnc4ccc(C(F)F)nn34)ncn2)c2ccccc21 (centres unmarked) [II-11, N-((1-(6-(6-(Difluoromethyl)imidazo[1,2-b]pyridazin-3-yl)pyrimidin-4-yl)indolin-3-yl)methyl)methanesulfonamide] | 10 to 1000 | > 5000 | 

Reference: patent US10988477B2 (Merck Patent GmbH, priority 2018, dated 2021)
